According to the supplement of paper PMC10307832:

Tests used:
Experiment in all cases: relative viability (nuclei count vs DMSO), 5 days (fraction); higher = more cells survive
[1] = compound: CC1CC(=O)N(C2=CN=C(N=C2N1C3CCCC3)NC4=C(C=C(C=C4)C(=O)NC5CCN(CC5)C)OC)C [NPK76-II-72-1] + CC(=O)Nc1cccc(-n2c(=O)n(C3CC3)c(=O)c3c(Nc4ccc(I)cc4F)n(C)c(=O)c(C)c32)c1 [Trametinib] (partner 0.02 µM)
In short: (§1)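 For relative viability, nuclei counts in treated wells were divided by those in vehicle wells. Lung cancer cell lines had been pin-tool dosed in 1536-well plates the day after seeding and cultured for 5 days, then fixed and stained in one step (final 0.05% Triton X-100, 1% formaldehyde, 1 ug/ml Hoechst) and imaged at 4×. Doses were one drug alone or a fixed anchor-drug dose plus five library-drug doses (not always all listed) in √10 steps, and values are duplicate-plate medians.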

[2] = compound: CC1CC(=O)N(C2=CN=C(N=C2N1C3CCCC3)NC4=C(C=C(C=C4)C(=O)NC5CCN(CC5)C)OC)C [NPK76-II-72-1] + CS(=O)(=O)N1CCN(Cc2cc3nc(-c4cccc5[nH]ncc45)nc(N4CCOCC4)c3s2)CC1 [Pictilisib] (partner 1 µM)
In short: as §1

[3] = compound: CC[C@@H]1C(=O)N(C)c2cnc(Nc3ccc(C(=O)NC4CCN(C)CC4)cc3OC)nc2N1C1CCCC1 [BI-2536] + O=C(c1cc(Cc2n[nH]c(=O)c3ccccc23)ccc1F)N1CCN(C(=O)C2CC2)CC1 [Olaparib] (partner 8 µM)
In short: as §1

[4] = compound: CC[C@@H]1C(=O)N(C)c2cnc(Nc3ccc(C(=O)NC4CCN(C)CC4)cc3OC)nc2N1C1CCCC1 [BI-2536] + CS(=O)(=O)CCNCc1ccc(-c2ccc3ncnc(Nc4ccc(OCc5cccc(F)c5)c(Cl)c4)c3c2)o1 [Lapatinib] (partner 2 µM)
In short: as §1

UMC-11
relative viability ([1]; first compound 0.01 µM): 0.692
relative viability ([1]; first compound 0.03162 µM): 0.629
relative viability ([1]; first compound 0.1 µM): 0.75
relative viability ([1]; first compound 0.3162 µM): 0.484
relative viability ([1]; first compound 1 µM): 0.812
relative viability ([2]; first compound 0.01 µM): 0.75
relative viability ([2]; first compound 0.03162 µM): 0.707
relative viability ([2]; first compound 0.1 µM): 0.881
relative viability ([2]; first compound 0.3162 µM): 0.806
relative viability ([2]; first compound 1 µM): 0.778
relative viability ([3]; first compound 0.01 µM): 0.389
relative viability ([3]; first compound 0.03162 µM): 0.414
relative viability ([3]; first compound 0.1 µM): 0.251
relative viability ([3]; first compound 0.3162 µM): 0.218
relative viability ([3]; first compound 1 µM): 0.209
relative viability ([4]; first compound 0.01 µM): 1.02
relative viability ([4]; first compound 0.03162 µM): 0.765
relative viability ([4]; first compound 0.1 µM): 0.132
relative viability ([4]; first compound 0.3162 µM): 0.17
relative viability ([4]; first compound 1 µM): 0.18
